These are literature values, as cited in article PMC4360375 (Journal of Medicinal Chemistry, 2015).

The pIC50 is the IC50 on a negative log10 scale, so that one unit is a factor of ten.

One data set deals with GABA uptake, rat synaptosome. As to conditions: literature data set; ref 10.1016/S0968-0896(01)00148-1; cited from earlier work.
As to `CC/C=C(/C=N/OCCN1CCC[C@@H](C(=O)O)C1)c1ccccc1` [An_2001/6_20, O(\N=C\C(=C\CC)\c1ccccc1)CCN1C[C@@H](CCC1)C(O)=O], the pIC50 is on record as 6.125. `O=C(O)[C@@H]1CCCN(CCO/N=C2\CCCC=C2c2ccccc2)C1` [An_2001/6_25, O(\N=C\1/CCCC=C/1c1ccccc1)CCN1C[C@@H](CCC1)C(O)=O]: the pIC50 was 6.456.

As for `O=C(O)[C@@H]1CCCN(CCOCc2ccccc2-c2ccccc2)C1` [An_2001/6_35, O(Cc1ccccc1-c1ccccc1)CCN1C[C@@H](CCC1)C(O)=O], the negative logarithm of the IC50 (pIC50) is 6.476. For the compound `O=C(O)[C@@H]1CCCN(CCO/N=C/C2(c3ccccc3)CCCC2)C1` [An_2001/6_23, O(\N=C\C1(CCCC1)c1ccccc1)CCN1C[C@@H](CCC1)C(O)=O], the pIC50 is reported as 6.337. For the compound `O=C(O)[C@@H]1CCCN(CCOC/C(=C\c2ccccc2)c2ccccc2)C1` [An_2001/6_42, O(CCN1C[C@@H](CCC1)C(O)=O)C\C(=C/c1ccccc1)\c1ccccc1], the pIC50 is on record as 5.523.

Regarding `O=C(O)[C@@H]1CCCN(CCOC/C(=C/c2ccccc2)c2ccccc2)C1` [An_2001/6_41, O(CCN1C[C@@H](CCC1)C(O)=O)C\C(=C\c1ccccc1)\c1ccccc1], the pIC50 is reported as 6.297. Turning to `O=C(O)[C@@H]1CCCN(CCOCCc2ccccc2Cc2ccccc2)C1` [An_2001/6_40, O(CCc1ccccc1Cc1ccccc1)CCN1C[C@@H](CCC1)C(O)=O], the negative logarithm of the IC50 (pIC50) is reported as 7. Take `O=C(O)[C@@H]1CCCN(CCOCc2ccccc2Cc2ccccc2)C1` [An_2001/6_37, O(Cc1ccccc1Cc1ccccc1)CCN1C[C@@H](CCC1)C(O)=O]: the pIC50 is given as 6.495.

Still in this data set, the particulars now being: literature data set; ref 10.1021/jm00064a005; cited from earlier work.
Regarding `O=C(O)C1=CCCN(CCC=C(c2ccccc2)c2ccccc2)C1` [SK&F-100330-A, OC(=O)C=1CN(CCC=1)CC\C=C(\c1ccccc1)/c1ccccc1], the pIC50 is given as 6.699. Turning to `O=C(O)[C@@H]1CCCN(CCC=C2c3ccccc3-c3ccccc32)C1` [compound 7, OC(=O)[C@@H]1CCCN(C1)CC\C=C/1\c2c(-c3c\1cccc3)cccc2], the negative logarithm of the IC50 (pIC50) is 5.717. In the case of `Cc1ccc(/C(=C\CCN2CCC[C@@H](C(=O)O)C2)c2sccc2C)c(C)c1` [An_1993_47, s1ccc(C)c1/C(=C/CCN1C[C@@H](CCC1)C(O)=O)/c1ccc(cc1C)C], the negative-log IC50 (pIC50) is given as 6.585. Consider `Cc1ccsc1/C(=C/CCN1CCC=C(C(=O)O)C1)c1cc(Cl)cc(Cl)c1` [An_1993_38, Clc1cc(cc(Cl)c1)/C(=C\CCN1CC(=CCC1)C(O)=O)/c1sccc1C], for which the negative logarithm of the IC50 (pIC50) is reported as 5.73.

Consider `O=C(O)C1=CCCN(CCOC(c2ccc(C(F)(F)F)cc2)c2ccc(C(F)(F)F)cc2)C1` [Cl-966, FC(F)(F)c1ccc(cc1)C(OCCN1CC(=CCC1)C(O)=O)c1ccc(cc1)C(F)(F)F], for which the pIC50 is 6.357. Take `Cc1ccsc1/C(=C/CCN1CCC=C(C(=O)O)C1)c1ccc(Cl)cc1` [An_1993_48, Clc1ccc(cc1)/C(=C\CCN1CC(=CCC1)C(O)=O)/c1sccc1C]: the pIC50 is 6.071.

As to `Cc1ccsc1C(=CCCN1CCC[C@H](C(=O)O)C1)c1sccc1C` [(S)-Tiagabine, s1ccc(C)c1\C(=C\CCN1C[C@H](CCC1)C(O)=O)\c1sccc1C], the pIC50 is given as 6.658. Consider `Cc1ccsc1/C(=C/CCN1CCC=C(C(=O)O)C1)c1cccs1` [An_1993_42, s1ccc(C)c1\C(=C\CCN1CC(=CCC1)C(O)=O)\c1sccc1], for which the pIC50 is reported as 6.959.

The same data set, now with this note: literature data set; ref 10.1021/jm980492e; cited from earlier work.
Regarding `O=C(O)[C@@H]1CCCN(CCCCOCCN(c2ccccc2)c2ccccc2)C1` [An_1999/4_(R)-18, O(CCCCN1C[C@@H](CCC1)C(O)=O)CCN(c1ccccc1)c1ccccc1], the negative-log IC50 (pIC50) is reported as 6.523. Turning to `O=C(O)[C@@H]1CCCN(CCOCCC(c2ccc(F)cc2)c2ccc(F)cc2)C1` [An_1999/4_(R)-33, Fc1ccc(cc1)C(CCOCCN1C[C@@H](CCC1)C(O)=O)c1ccc(F)cc1], the pIC50 is reported as 6.167. With `Cc1ccccc1C(=CCOCCCN1CCC[C@@H](C(=O)O)C1)c1ccccc1C` [An_1999/4_(R)-24, O(CCCN1C[C@@H](CCC1)C(O)=O)C\C=C(\c1ccccc1C)/c1ccccc1C], the negative logarithm of the IC50 (pIC50) is listed as 7.097. Consider `O=C(O)[C@@H]1CCCN(CCOCC=C(c2ccc(F)cc2)c2ccc(F)cc2)C1` [An_1999/4_(R)-26, Fc1ccc(cc1)\C(=C\COCCN1C[C@@H](CCC1)C(O)=O)\c1ccc(F)cc1], for which the pIC50 is recorded as 5.836. With `O=C(O)[C@@H]1CCCN(CCCN(c2ccccc2)c2ccccc2)C1` [An_1999/4_(R)-10, OC(=O)[C@@H]1CCCN(C1)CCCN(c1ccccc1)c1ccccc1], the pIC50 is recorded as 5.046. On to `Cc1ccccc1C(=CCOCCN1CCC[C@@H](C(=O)O)C1)c1ccccc1C` [An_1999/4_(R)-23, O(CCN1C[C@@H](CCC1)C(O)=O)C\C=C(\c1ccccc1C)/c1ccccc1C], for which the negative-log IC50 (pIC50) is reported as 6.959.

The data set is the same for the next values; noted with them: literature data set; ref 10.1021/jm981027k; cited from earlier work.
`Cc1ccccc1/C(=C\OCCN1CCC[C@@H](C(=O)O)C1)c1cccc(F)c1` [An_1999/3_71, Fc1cc(ccc1)/C(=C/OCCN1C[C@@H](CCC1)C(O)=O)/c1ccccc1C]: the pIC50 is on record as 7.523.

Turning to `O=C(O)[C@@H]1CCCN(CCON=C(c2cccc(Cl)c2)c2cccc(Cl)c2)C1` [An_1999/3_93, Clc1cc(ccc1)\C(=N\OCCN1C[C@@H](CCC1)C(O)=O)\c1cc(Cl)ccc1], the pIC50 is reported as 6.509. Take `COc1cccc(/C(=N/OCCN2CCC[C@@H](C(=O)O)C2)c2sccc2C)c1` [An_1999/3_86, s1ccc(C)c1\C(=N/OCCN1C[C@@H](CCC1)C(O)=O)\c1cc(OC)ccc1]: the pIC50 is reported as 7.046. For `Cc1ccccc1/C(=C/OCCN1CCC[C@@H](C(=O)O)C1)c1sccc1C` [An_1999/3_69, s1ccc(C)c1/C(=C\OCCN1C[C@@H](CCC1)C(O)=O)/c1ccccc1C], the pIC50 is given as 7.77.

In the case of `Cc1ccccc1/C(=N/OCCN1CCC[C@@H](C(=O)O)C1)c1sccc1C` [An_1999/3_39, s1ccc(C)c1/C(=N\OCCN1C[C@@H](CCC1)C(O)=O)/c1ccccc1C], the negative-log IC50 (pIC50) is recorded as 7.155. For `Cc1ccccc1/C(=N/OCCN1CCC[C@H](C(=O)O)C1)c1sccc1C` [An_1999/3_82, s1ccc(C)c1/C(=N\OCCN1C[C@H](CCC1)C(O)=O)/c1ccccc1C], the pIC50 is reported as 7.097. Regarding `Cc1ccccc1/C(=C\OCCN1CCC[C@@H](C(=O)O)C1)c1ccccc1` [An_1999/3_96, O(\C=C(/c1ccccc1C)\c1ccccc1)CCN1C[C@@H](CCC1)C(O)=O], the negative logarithm of the IC50 (pIC50) was 7.699. Regarding `O=C(O)[C@@H]1CCCN(CCON=C(c2ccc(F)cc2F)c2ccc(F)cc2F)C1` [An_1999/3_68, Fc1cc(F)ccc1\C(=N\OCCN1C[C@@H](CCC1)C(O)=O)\c1ccc(F)cc1F], the pIC50 was 7.

On to `O=C(O)[C@@H]1CCCN(CCOC=C(c2ccc(F)cc2Cl)c2ccc(F)cc2Cl)C1` [An_1999/3_111, Clc1cc(F)ccc1\C(=C\OCCN1C[C@@H](CCC1)C(O)=O)\c1ccc(F)cc1Cl], for which the negative-log IC50 (pIC50) is recorded as 7.18. Turning to `O=C(O)[C@H]1CCCN(CCON=C(c2ccccc2)c2ccccc2)C1` [An_1999/3_61, O(\N=C(\c1ccccc1)/c1ccccc1)CCN1C[C@H](CCC1)C(O)=O], the pIC50 is on record as 6.377. For the compound `CCc1ccccc1C(=NOCCN1CCC=C(C(=O)O)C1)c1ccccc1CC` [An_1999/3_88, O(\N=C(\c1ccccc1CC)/c1ccccc1CC)CCN1CC(=CCC1)C(O)=O], the pIC50 was 6.745.

Consider `Cc1ccccc1/C(=C\OCCN1CCC[C@@H](C(=O)O)C1)c1ccccc1Cl` [An_1999/3_101, Clc1ccccc1/C(=C/OCCN1C[C@@H](CCC1)C(O)=O)/c1ccccc1C], for which the pIC50 was 8. Consider `Cc1ccccc1/C(=N\OCCN1CCC[C@@H](C(=O)O)C1)c1sccc1C` [An_1999/3_40, s1ccc(C)c1/C(=N/OCCN1C[C@@H](CCC1)C(O)=O)/c1ccccc1C], for which the pIC50 is 7.046. Turning to `O=C(O)[C@@H]1CCCN(CCOC=C(c2cccc(Cl)c2)c2cccc(Cl)c2)C1` [An_1999/3_112, Clc1cc(ccc1)\C(=C\OCCN1C[C@@H](CCC1)C(O)=O)\c1cc(Cl)ccc1], the pIC50 was 6.699. As for `Cc1ccccc1C(=NOCCN1CCC[C@@H](C(=O)O)C1)c1ccccc1C` [An_1999/3_62, O(\N=C(\c1ccccc1C)/c1ccccc1C)CCN1C[C@@H](CCC1)C(O)=O], the pIC50 is reported as 7.155.

Consider `Cc1ccsc1C(=NOCCN1CCC[C@H](C(=O)O)C1)c1sccc1C` [An_1999/3_80, s1ccc(C)c1\C(=N\OCCN1C[C@H](CCC1)C(O)=O)\c1sccc1C], for which the pIC50 is recorded as 7.097.

Staying with this data set, now noted: literature data set; ref 10.1021/jm990513k; cited from earlier work.
`O=C(O)[C@@H]1CCCN(CCOCC=C2c3ccccc3CCc3ccccc32)C1` [An_2001/5_34, O(CCN1C[C@@H](CCC1)C(O)=O)C\C=C/1\c2c(CCc3c\1cccc3)cccc2]: the pIC50 is 6.114. Regarding `O=C(O)[C@@H]1CCCN(CCOCCN2c3ccccc3CCc3ccc(Cl)cc32)C1` [An_2001/5_27, Clc1cc2N(c3c(CCc2cc1)cccc3)CCOCCN1C[C@@H](CCC1)C(O)=O], the pIC50 is listed as 7.155. For `O=C(O)[C@@H]1CCCN(CCOCCN2c3cc(Cl)ccc3CCc3ccc(Cl)cc32)C1` [An_2001/5_28, Clc1cc2N(c3cc(Cl)ccc3CCc2cc1)CCOCCN1C[C@@H](CCC1)C(O)=O], the pIC50 was 7.155. Consider `O=C(O)[C@@H]1CCCN(CCOCCN2c3ccc(Br)cc3CCc3cc(Br)ccc32)C1` [An_2001/5_31, Brc1cc2CCc3cc(Br)ccc3N(c2cc1)CCOCCN1C[C@@H](CCC1)C(O)=O], for which the pIC50 was 5.987. Regarding `O=C(O)C1=CCCN(CCOCCC2c3ccccc3CCc3ccccc32)C1` [An_2001/5_38, O(CCC1c2c(CCc3c1cccc3)cccc2)CCN1CC(=CCC1)C(O)=O], the pIC50 is 5.921. With `O=C(O)[C@@H]1CCCN(CCOCCN2c3ccccc3Sc3ccccc32)C1` [An_2001/5_21, S1c2c(N(c3c1cccc3)CCOCCN1C[C@@H](CCC1)C(O)=O)cccc2], the pIC50 is recorded as 6.509. In the case of `O=C(O)[C@@H]1CCCN(CCOCCC2c3ccccc3CCc3ccccc32)C1` [An_2001/5_37, O(CCC1c2c(CCc3c1cccc3)cccc2)CCN1C[C@@H](CCC1)C(O)=O], the pIC50 is listed as 6.252. For `O=C(O)[C@@H]1CCCN(CCOCCn2c3ccccc3c3ccccc32)C1` [An_2001/5_19, O(CCN1C[C@@H](CCC1)C(O)=O)CCn1c2c(c3c1cccc3)cccc2], the pIC50 is 4.398.
